Source: the NIST ThermoML archive (doi:10.1016/j.tca.2005.06.034)
Numbers after ± are expanded uncertainties.

Tests used:
[1] = Crystal
[2] = Molar enthalpy of transition or fusion; details: Crystal; DSC

## CN1N=N[NH+](N)C1N.O=[N+]([O-])[O-] (stereo not drawn) [1,5-diamino-4-methyl-4,5-dihydro-1H-tetrazol-1-ium nitrate]
[1]; 571.3 K, 101.33 kPa, X-ray
  mass density: 1506 ± 2 kg/m3
[1]; DTA
  Normal melting temperature: 121.00 ± 1 °C
[2]
  Molar enthalpy of transition or fusion: 5.16e-06 ± 1.7e-07 kcal/mol
